Counter-ions that a name gives are not always drawn.
Legend:
[1] = test system: alcohol-preferring (P) rats; test: Combined topiramate and naltrexone on alcohol consumption in animal model; format: in vivo; conditions: 8 rats
Method: FIG. 8 graphically illustrates the combined effect of topiramate and naltrexone on alcohol consumption in alcohol-preferring (P) rats. Rats received either vehicle, topiramate at 5 mg/kg, topiramate at 10 mg/kg, naltrexone at 1/mg/kg and topiramate at 5 mg/kg, naltrexone at 1/mg/kg and topiramate at 10 mg/kg, or naltrexone at 1 mg/kg. Each data point represents the mean (±SE) of 8 rats as a change from baseline.
No significant differences were observed following vehicle injection. Data are plotted as change from baseline consumption, and each data point represents a mean (±SE) of 8 rats.

[2] = test system: alcohol dependence; conditions: topiramate up to 300 mg per day, 12 weeks, vs. placebo; cited from earlier work
[3] = test system: EOA and LOA alcoholics; conditions: ondansetron 1, 4, 16 μg/kg twice daily (particularly 4 μg/kg), compared with LOA; cited from earlier work
[4] = test system: alcoholism treatment; conditions: medication alone; cited from earlier work
[5] = test system: rhesus monkeys; test: Naltrexone's effects on alcohol drinking in non-human primates, fixed ratio schedule of reinforcement; format: in vivo; conditions: three non food deprived rhesus monkeys, 3 hour sessions, naltrexone 0.1, 0.3, 1.0, 3.0 g/kg, water concurrently available
Method: FIG. 3 graphically illustrates the effects of Naltrexone on alcohol consumption in non-human primates (rhesus monkeys). Naltrexone was administered at 0.1 (∘), 0.3 ([…]), 1.0 (□) or 3.0 (▪) […]. The ordinate represents cumulative deliveries as percent change from baseline. The abscissa represents time in 10 minute blocks.
This study was principally conducted as a collaboration with Richard Meisch and Alan Boyle. […] During these 3 hour sessions, both water and alcohol were concurrently available.

| Compound | alcohol consumption, change from baseline ([1]; topiramate alone, 10 mg/kg intraperitoneally, effect not yet significant) | craving [2] | days of abstinence [2] | drinks per day, drinking days, and drinks per drinking day [2] | drinking [3] | typical effect sizes [4] | alcohol consumption (8% w/v) [5] | alcohol consumption, change from baseline ([1]; naltrexone alone, 1 mg/kg intraperitoneally) |
| --- | --- | --- | --- | --- | --- | --- | --- | --- |
| CC1(C)O[C@@H]2[C@@H](CO[C@@]3(COS(N)(=O)=O)OC(C)(C)O[C@@H]23)O1 [topiramate, 2,3:4,5-Bis-O-(1-methylethylidene)-beta-D-fructopyranose sulfamate] | only modestly decreased | significantly less | significantly more | significantly fewer |  |  |  |  |
| Cc1nccn1CC1CCc2c(c3ccccc3n2C)C1=O (stereo not drawn) [ondansetron, 9-methyl-3-[(2-methyl-1H-imidazol-1-yl)methyl]-1,2,3,9-tetrahydrocarbazol-4-one] |  |  |  |  | significant reductions | 0.2±0.5 |  |  |
| O=C1CC[C@@]2(O)[C@H]3Cc4ccc(O)c5c4[C@@]2(CCN3CC2CC2)[C@H]1O5 [naltrexone, 17-(Cyclopropylmethyl)-4,5a-epoxy-3,14-dihydroxymorphinan-6-one hydrochloride] |  |  |  |  |  | 0.2±0.5 | dose-dependent decreases | did not affect alcohol consumption |
